Reference: patent US20050118109A1, “Method for treating lung diseases associated with ventilation-perfusion mismatches” (priority 2003, published 2005)

Key:
[1] = system: arthritis in an experimental model; details: treatment with VIP; cited from earlier work
[2] = system: patient with chronic bronchitis with V/Q-mismatch; experiment: Inhalation of VIP by patient No. 4: chronic bronchitis with V/Q-mismatch, no bronchial obstruction; type: in vivo, human
[3] = system: pulmonary vascular system; details: in vivo; cited from earlier work
Type I binding sites = biological target: T1, Type I binding sites (Homo sapiens, UniProt P41586); details: cited from earlier work
T1 sequence (P41586 21-468): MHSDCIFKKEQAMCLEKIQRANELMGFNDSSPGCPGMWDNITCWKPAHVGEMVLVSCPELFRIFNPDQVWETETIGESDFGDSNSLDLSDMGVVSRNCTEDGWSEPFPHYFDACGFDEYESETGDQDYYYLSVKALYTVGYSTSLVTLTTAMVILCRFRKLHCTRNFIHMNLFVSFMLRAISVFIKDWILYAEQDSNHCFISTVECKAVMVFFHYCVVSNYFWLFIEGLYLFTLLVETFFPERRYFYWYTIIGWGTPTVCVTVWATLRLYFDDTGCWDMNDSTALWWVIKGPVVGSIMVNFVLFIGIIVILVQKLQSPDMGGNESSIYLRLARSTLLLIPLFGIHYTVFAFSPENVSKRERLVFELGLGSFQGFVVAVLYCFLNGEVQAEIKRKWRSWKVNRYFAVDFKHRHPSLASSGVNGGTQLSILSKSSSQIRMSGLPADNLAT

[4] = patient No. 4, after 1 and 2 days of inhalation

Question: For “His-Ser-Asp-Ala-Val-Phe-Thr-Asp-Asn-Tyr-Thr-Arg-Leu-Arg-Lys-Gln-Met-Ala-Val-Lys-Lys-Tyr-Leu-Asn-Ser-Ile-Leu-Asn [VIP]”, which “incidence and severity of arthritis” value [1] is on record?
Answer: reduce significantly

Question: What about the “joint swelling and destruction of cartilage and bone” value [1] of the same substance?
Answer: completely abrogating

Question: What about the “pulmonary gas exchange in lung function analysis” value [2, 4] of the same substance?
Answer: completely normal pulmonary gas exchange

Question: What about the “severe decrease of paO2 caused by V/Q-mismatch” value [2, 4] of the same substance?
Answer: significantly ameliorated

Question: And the V/Q-mismatch ([2]; patient No. 4, after inhalation of VIP)?
Answer: totally removed

Question: What about the “resistance in the pulmonary vascular system” value [3] of the same substance?
Answer: decrease the resistance

Question: And the “affinity for type I binding sites” value (Type I binding sites)?
Answer: much lower affinity
